Data as given in ChEMBL document CHEMBL1126751, “Studies on quinazolines. 5. 2,3-dihydroimidazo[1,2-c]quinazoline derivatives: a novel class of potent and selective alpha 1-adrenoceptor antagonists and antihypertensive agents” (J Med Chem, 1993).
The source made the active and inactive calls. The calls are words filed in the database; no cut-off is given here.

Legend:
Rattus norvegicus [1] = assay: Blood pressure lowering activity in spontaneously hypertensive rats (SHR) after 6 hours of administration (iv) of dose of 0.5 mg/kg […]; format: functional
[2] = target: T1, Adrenergic receptor alpha-2 (Rattus norvegicus, UniProt P22086+P19328+P22909); assay: Binding affinity against alpha-2 adrenergic receptor by measuring displacement of [3H]clonidine from rat brain cortex membranes (in vitro).; format: cell membranes, Membrane
T1 sequence (P22086 whole entry): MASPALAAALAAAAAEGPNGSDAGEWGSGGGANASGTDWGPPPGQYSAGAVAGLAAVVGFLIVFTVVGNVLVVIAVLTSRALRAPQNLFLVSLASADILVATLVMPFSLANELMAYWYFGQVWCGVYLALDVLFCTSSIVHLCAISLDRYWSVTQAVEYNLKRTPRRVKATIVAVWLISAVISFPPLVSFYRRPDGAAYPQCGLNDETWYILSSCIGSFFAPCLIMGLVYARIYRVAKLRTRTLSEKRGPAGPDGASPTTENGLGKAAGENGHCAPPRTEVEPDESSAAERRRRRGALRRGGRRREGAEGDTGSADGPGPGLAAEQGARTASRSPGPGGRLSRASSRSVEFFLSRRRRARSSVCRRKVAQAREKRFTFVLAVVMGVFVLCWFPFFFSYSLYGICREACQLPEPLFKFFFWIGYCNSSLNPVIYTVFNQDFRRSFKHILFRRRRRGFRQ
T1 sequence (P19328 whole entry): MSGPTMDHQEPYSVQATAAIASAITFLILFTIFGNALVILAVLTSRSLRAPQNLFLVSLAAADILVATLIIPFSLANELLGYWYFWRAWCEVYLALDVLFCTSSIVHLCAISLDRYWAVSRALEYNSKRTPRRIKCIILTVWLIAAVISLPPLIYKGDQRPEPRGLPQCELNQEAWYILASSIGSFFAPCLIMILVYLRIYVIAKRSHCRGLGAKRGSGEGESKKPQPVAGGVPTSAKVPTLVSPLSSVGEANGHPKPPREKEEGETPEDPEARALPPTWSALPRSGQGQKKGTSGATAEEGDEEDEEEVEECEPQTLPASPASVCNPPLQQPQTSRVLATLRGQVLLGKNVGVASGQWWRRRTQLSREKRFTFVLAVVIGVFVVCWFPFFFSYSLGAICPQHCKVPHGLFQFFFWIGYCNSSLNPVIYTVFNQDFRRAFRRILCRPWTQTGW
T1 sequence (P22909 whole entry): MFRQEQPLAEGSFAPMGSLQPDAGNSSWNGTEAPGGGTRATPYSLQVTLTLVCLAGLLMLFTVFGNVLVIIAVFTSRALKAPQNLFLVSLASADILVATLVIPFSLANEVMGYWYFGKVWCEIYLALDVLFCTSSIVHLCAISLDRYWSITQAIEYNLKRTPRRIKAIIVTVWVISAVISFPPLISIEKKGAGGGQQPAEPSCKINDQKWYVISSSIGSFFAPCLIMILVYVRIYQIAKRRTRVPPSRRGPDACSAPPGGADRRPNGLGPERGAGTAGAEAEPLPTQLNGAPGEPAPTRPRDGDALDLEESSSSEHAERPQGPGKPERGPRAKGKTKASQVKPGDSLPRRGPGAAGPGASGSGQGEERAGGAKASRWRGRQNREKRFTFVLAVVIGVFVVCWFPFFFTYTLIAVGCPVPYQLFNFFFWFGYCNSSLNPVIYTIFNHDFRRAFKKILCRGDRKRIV

[3] = target: T2, Adrenergic receptor alpha-1 (Rattus norvegicus, UniProt P15823+P23944+P43140); assay: Binding affinity against alpha-1 adrenergic receptor by measuring displacement of [3H]prazosin from rat brain cortex membranes (in vitro).; format: cell membranes, Membrane
T2 sequence (P15823 whole entry): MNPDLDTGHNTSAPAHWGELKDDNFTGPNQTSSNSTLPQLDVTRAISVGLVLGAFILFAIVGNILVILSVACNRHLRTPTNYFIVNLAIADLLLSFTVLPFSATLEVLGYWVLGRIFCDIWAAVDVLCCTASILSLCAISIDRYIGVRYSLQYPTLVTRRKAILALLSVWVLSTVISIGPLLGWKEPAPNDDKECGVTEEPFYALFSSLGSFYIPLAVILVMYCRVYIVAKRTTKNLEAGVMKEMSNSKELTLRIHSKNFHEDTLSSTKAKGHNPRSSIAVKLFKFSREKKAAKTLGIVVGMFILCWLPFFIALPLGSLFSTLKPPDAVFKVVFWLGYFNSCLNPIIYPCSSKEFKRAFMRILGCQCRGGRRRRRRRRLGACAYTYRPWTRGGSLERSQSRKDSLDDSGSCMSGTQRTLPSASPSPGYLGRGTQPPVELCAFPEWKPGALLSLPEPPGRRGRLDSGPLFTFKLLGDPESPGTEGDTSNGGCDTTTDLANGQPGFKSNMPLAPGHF
T2 sequence (P23944 whole entry): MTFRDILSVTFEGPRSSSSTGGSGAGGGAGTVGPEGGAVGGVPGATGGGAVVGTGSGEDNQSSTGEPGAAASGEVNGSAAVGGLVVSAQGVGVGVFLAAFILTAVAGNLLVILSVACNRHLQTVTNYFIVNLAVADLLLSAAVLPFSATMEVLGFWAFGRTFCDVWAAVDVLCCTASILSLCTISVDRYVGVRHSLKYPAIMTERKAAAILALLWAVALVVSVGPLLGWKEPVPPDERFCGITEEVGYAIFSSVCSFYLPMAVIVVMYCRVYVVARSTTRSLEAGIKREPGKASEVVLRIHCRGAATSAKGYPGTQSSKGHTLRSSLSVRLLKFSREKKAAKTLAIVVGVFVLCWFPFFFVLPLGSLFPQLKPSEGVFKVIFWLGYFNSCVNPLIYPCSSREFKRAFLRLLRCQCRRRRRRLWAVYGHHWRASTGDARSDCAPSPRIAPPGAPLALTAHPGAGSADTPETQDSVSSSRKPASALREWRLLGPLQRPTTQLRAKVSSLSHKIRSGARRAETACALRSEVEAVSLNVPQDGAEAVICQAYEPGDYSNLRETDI
T2 sequence (P43140 whole entry): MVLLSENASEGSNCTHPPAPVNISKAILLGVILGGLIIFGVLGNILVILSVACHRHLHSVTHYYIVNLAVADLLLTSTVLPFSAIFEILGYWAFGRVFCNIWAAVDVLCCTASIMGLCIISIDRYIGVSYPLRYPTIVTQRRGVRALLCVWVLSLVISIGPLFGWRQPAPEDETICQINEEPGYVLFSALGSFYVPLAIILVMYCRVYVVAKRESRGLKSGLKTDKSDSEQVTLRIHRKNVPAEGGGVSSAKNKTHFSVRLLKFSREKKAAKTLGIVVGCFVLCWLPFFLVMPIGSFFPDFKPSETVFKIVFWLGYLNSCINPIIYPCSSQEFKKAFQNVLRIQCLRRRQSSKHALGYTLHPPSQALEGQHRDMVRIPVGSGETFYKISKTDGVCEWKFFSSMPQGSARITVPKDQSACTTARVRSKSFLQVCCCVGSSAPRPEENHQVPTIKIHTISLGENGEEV

Rattus norvegicus [4] = assay: Blood pressure lowering activity in spontaneously hypertensive rats (SHR) after 1 hour of administration (iv) of dose of 0.5 mg/kg […]; format: functional
Rattus norvegicus [5] = assay: Blood pressure lowering activity in spontaneously hypertensive rats (SHR) after 6 hours of administration (iv) of dose of 4.0 mg/kg […]; format: functional
Rattus norvegicus [6] = assay: Blood pressure lowering activity in spontaneously hypertensive rats (SHR) after 1 hour of administration (iv) of dose of 4.0 mg/kg […]; format: functional
Rattus norvegicus [7] = assay: Blood pressure lowering activity in spontaneously hypertensive rats (SHR) after 1 hour of administration (iv) of dose of 4.0 mg/kg; Did not last more than 1/2 hr […]; format: functional, organism-based; design: dose 4 mg/kg
Rattus norvegicus [8] = assay: Blood pressure lowering activity in spontaneously hypertensive rats (SHR) after 6 hours of administration (iv) of dose of 4.0 mg/kg; Did not last more than 1/2 hr […]; format: functional, organism-based; design: dose 4 mg/kg
Rattus norvegicus [9] = assay: Blood pressure lowering activity in spontaneously hypertensive rats (SHR) after 6 hours of administration (iv) of dose of 1.0 mg/kg; Did not last more than 1/2 hr […]; format: functional, organism-based; design: dose 1 mg/kg
Rattus norvegicus [10] = assay: Blood pressure lowering activity in spontaneously hypertensive rats (SHR) after 1 hour of administration (iv) of dose of 1.0 mg/kg; Did not last more than 1/2 hr […]; format: functional, organism-based; design: dose 1 mg/kg
Rattus norvegicus [11] = assay: Blood pressure lowering activity in spontaneously hypertensive rats (SHR) after 6 hours of administration (iv) of dose of 0.5 mg/kg; Did not last more than 1/2 hr […]; format: functional, organism-based; design: dose 0.5 mg/kg

SMILES | Ki [2] [nM] | Ki [3] [nM] | MBP (Rattus norvegicus [7]) | MBP (Rattus norvegicus [8]) | also measured
O=C1Nc2ccccc2C2=NCC(CN3CCN(c4ccccc4Cl)CC3)N12 (configuration not stated) | 387 | 0.58 | – | – | MBP (Rattus norvegicus [1]): -15 mmHg; MBP (Rattus norvegicus [4]): -14.6 mmHg
COc1cccc(N2CCN(CC3CN4C(=O)Nc5ccccc5C4=N3)CC2)c1 (configuration not stated) | – | – | – | – | MBP (Rattus norvegicus [5]): -8.5 mmHg; MBP (Rattus norvegicus [6]): -20.3 mmHg
COc1cccc(N2CCN(CC3CN=C4c5ccccc5NC(=O)N43)CC2)c1 (configuration not stated) | 302 | 5.76 | inactive | inactive | –
COc1cc2c(cc1OC)C1=NC(CN3CCN(c4ccccc4)CC3)CN1C(=O)N2 (configuration not stated) | 1694 | 30 | – | – | MBP (Rattus norvegicus [5]): -12.6 mmHg; MBP (Rattus norvegicus [6]): -38.2 mmHg
O=C1Nc2ccccc2C2=NC(CN3CCC4(CCCCC4)CC3)CN12 (configuration not stated) | – | 251.2 | inactive | inactive | –
CSC1=Nc2ccccc2C2=NCC(CN3CCN(c4ccccc4)CC3)N12 (configuration not stated) | – | > 10 | – | – | MBP (Rattus norvegicus [9]): inactive; MBP (Rattus norvegicus [10]): inactive
COC1=Nc2ccccc2C2=NCC(CN3CCN(c4ccccc4)CC3)N12 (configuration not stated) | 952 | 1.35 | – | – | MBP (Rattus norvegicus [9]): inactive; MBP (Rattus norvegicus [10]): inactive
O=C1Nc2ccccc2C2=NC(CN3CCC(Cc4ccccc4)CC3)CN12 (configuration not stated) | 5011 | 35.8 | – | inactive | MBP (Rattus norvegicus [6]): -30.6 mmHg
COC1=Nc2ccccc2C2=NCC(CN3CCN(c4ccc(OC)cc4)CC3)N12 (configuration not stated) | – | > 100 | inactive | inactive | –
CN1C(=O)N2CC(CN3CCN(c4ccccc4Cl)CC3)N=C2c2ccccc21 (configuration not stated) | 473 | 0.68 | – | – | MBP (Rattus norvegicus [1]): -22.5 mmHg; MBP (Rattus norvegicus [4]): -27.5 mmHg
O=C(c1ccc(F)cc1)C1CCN(CC2CN3C(=O)Nc4ccccc4C3=N2)CC1 (configuration not stated) | – | – | – | – | MBP (Rattus norvegicus [5]): -13.8 mmHg; MBP (Rattus norvegicus [6]): -30 mmHg
COC1=Nc2ccccc2C2=NCC(CN3CCN(c4ccccc4OC)CC3)N12 (configuration not stated) | 472 | 0.07 | – | – | MBP (Rattus norvegicus [11]): inactive; MBP (Rattus norvegicus [4]): -17.2 mmHg
COc1ccc(N2CCN(CC3CN=C4c5ccccc5NC(=O)N43)CC2)cc1 (configuration not stated) | – | > 50 | inactive | inactive | –
COc1cccc(N2CCN(CC3CN=C4c5ccccc5N=C(SC)N43)CC2)c1 (configuration not stated) | 8356 | 48.8 | – | – | MBP (Rattus norvegicus [9]): inactive; MBP (Rattus norvegicus [10]): inactive
SC1=Nc2ccccc2C2=NC(CN3CCN(c4ccccc4)CC3)CN12 (configuration not stated) | – | 158 | – | – | MBP (Rattus norvegicus [5]): -22.5 mmHg; MBP (Rattus norvegicus [6]): -33.9 mmHg
O=C1Nc2ccccc2C2=NCC(CN3CCN(c4ccccc4)CC3)N12 (configuration not stated) | 962 | 1.7 | – | – | –
COC1=Nc2ccccc2C2=NCC(CN3CCN(c4ccccc4Cl)CC3)N12 (configuration not stated) | 116 | 0.11 | – | – | MBP (Rattus norvegicus [11]): inactive; MBP (Rattus norvegicus [4]): -28.3 mmHg
O=C1Nc2ccccc2C2=NC(CN3CCN(c4ccccn4)CC3)CN12 (configuration not stated) | – | 95.9 | inactive | inactive | –
COc1cccc(N2CCN(CC3CN=C4c5ccccc5N(C)C(=O)N43)CC2)c1 (configuration not stated) | – | 19.4 | inactive | inactive | –
COC1=Nc2ccccc2C2=NCC(CN3CCN(c4cccc(OC)c4)CC3)N12 (configuration not stated) | – | > 100 | inactive | inactive | –
CSC1=Nc2ccccc2C2=NCC(CN3CCN(c4ccccc4Cl)CC3)N12 (configuration not stated) | 223 | 0.34 | – | – | MBP (Rattus norvegicus [9]): inactive; MBP (Rattus norvegicus [10]): inactive
COc1ccc(N2CCN(CC3CN=C4c5ccccc5N=C(SC)N43)CC2)cc1 (configuration not stated) | – | > 100 | – | – | MBP (Rattus norvegicus [9]): inactive; MBP (Rattus norvegicus [10]): inactive
COc1ccccc1N1CCN(CC2CN=C3c4ccccc4N(C)C(=O)N32)CC1 (configuration not stated) | 1419 | 0.36 | – | – | MBP (Rattus norvegicus [1]): -28.3 mmHg; MBP (Rattus norvegicus [4]): -32.5 mmHg
COc1ccccc1N1CCN(CC2CN3C(=O)N(C)c4ccccc4C3=N2)CC1 (configuration not stated) | 1740 | 0.37 | – | – | MBP (Rattus norvegicus [1]): -28.4 mmHg; MBP (Rattus norvegicus [4]): -38.4 mmHg
O=C1Nc2ccccc2C2=NC(CNC3CCN(Cc4ccccc4)CC3)CN12 (configuration not stated) | – | 586 | inactive | inactive | –
O=C1Nc2ccccc2C2=NC(CN3CCN(c4ccc(F)cc4)CC3)CN12 (configuration not stated) | 391 | 14.4 | inactive | – | –
